From publication PMC6072471 (MedChemComm, 2017)

Legend:
[1] = system: rVSIV-ΔG-MarV-GP pseudotype; assay: organism not typed; type: cell-based, Marburg virus; conditions: for IC50: HEK293, 24 h, read-out: ICMarV50
rVSIV-ΔG-G pseudotype = assay: microbe, parasite or virus in culture; type: cell-based, Vesicular stomatitis Indiana virus; conditions: for IC50: Vesicular stomatitis Indiana virus, HEK293, 24 h, read-out: ICVSIV50

SMILES	toxicity (in words) (HEK293 cells)	activity against rVSIV-ΔG-MarV-GP (in words) [1]	IC50 [1]	activity against rVSIV-ΔG-G (in words) (rVSIV-ΔG-G pseudotype)	IC50 (rVSIV-ΔG-G pseudotype)	specificity of inhibition of MarV-GP-mediated infection (in words) [1]
CC1(C)[C@H]2CC[C@]1(C)[C@H](O)C2 [(–)-Borneol, reference compound]	nontoxic	not active	203 µM	not active	> 650 µM	–
CC1(C)[C@H]2CC[C@]1(C)[C@H](OC(=O)CN1CCCC1)C2 [Compound 1]	–	–	52 ± 5 µM	–	239 ± 19 µM	non-specific inhibitors
CC1(C)[C@H]2CC[C@]1(C)[C@H](OC(=O)CCN1CCCC1)C2 [Compound 2]	–	–	12 ± 1 µM	–	29 ± 6 µM	non-specific inhibitors
CC1(C)[C@H]2CC[C@]1(C)[C@H](OC(=O)CN1CCCCC1)C2 [Compound 3]	–	–	86 ± 11 µM	–	102 ± 9 µM	–
CC1(C)[C@H]2CC[C@]1(C)[C@H](OC(=O)CCN1CCCCC1)C2 [Compound 4]	–	–	9 ± 1 µM	–	121 ± 7 µM	–
CC1CCN(CC(=O)O[C@@H]2C[C@@H]3CC[C@@]2(C)C3(C)C)CC1 [Compound 5]	–	–	28 ± 2 µM	–	77 ± 16 µM	–
CC1CCN(CCC(=O)O[C@@H]2C[C@@H]3CC[C@@]2(C)C3(C)C)CC1 [Compound 6]	–	–	4 ± 1 µM	–	79 ± 19 µM	highest virus-specific activity
CC1(C)[C@H]2CC[C@]1(C)[C@H](OC(=O)CN1CCOCC1)C2 [Compound 7]	–	do not exhibit activity	263 ± 24 µM	–	267 ± 10 µM	–
CC1(C)[C@H]2CC[C@]1(C)[C@H](OC(=O)CCN1CCOCC1)C2 [Compound 8]	–	do not exhibit activity	78 ± 7 µM	–	257 ± 12 µM	–
CN1CCN(CC(=O)O[C@@H]2C[C@@H]3CC[C@@]2(C)C3(C)C)CC1 [Compound 9]	–	–	47 ± 3 µM	–	187 ± 24 µM	–
CN1CCN(CCC(=O)O[C@@H]2C[C@@H]3CC[C@@]2(C)C3(C)C)CC1 [Compound 10]	–	–	19 ± 1 µM	–	318 ± 23 µM	–
CCN1CCN(CC(=O)O[C@@H]2C[C@@H]3CC[C@@]2(C)C3(C)C)CC1 [Compound 11]	–	–	29 ± 2 µM	–	447 ± 15 µM	–
CCN1CCN(CCC(=O)O[C@@H]2C[C@@H]3CC[C@@]2(C)C3(C)C)CC1 [Compound 12]	–	–	10 ± 2 µM	–	106 ± 5 µM	–
CC1(C)[C@H]2CC[C@]1(C)[C@H](OC(=O)CN1CCNCC1)C2 [Compound 13]	–	–	20 ± 1 µM	–	69 ± 13 µM	–
CC1(C)[C@H]2CC[C@]1(C)[C@H](OC(=O)CCN1CCNCC1)C2 [Compound 14]	–	–	10 ± 4 µM	–	102 ± 25 µM	–
CCCCN(CCCC)CC(=O)O[C@@H]1C[C@@H]2CC[C@@]1(C)C2(C)C [Compound 15]	highest toxicity	–	11 ± 1 µM	–	20 ± 1 µM	–
CCCCN(CCCC)CCC(=O)O[C@@H]1C[C@@H]2CC[C@@]1(C)C2(C)C [Compound 16]	highest toxicity	–	6 ± 1 µM	–	48 ± 5 µM	–
COc1ccc(CCN(C)CCCC(C#N)(c2ccc(OC)c(OC)c2)C(C)C)cc1OC (stereo not shown) [Verapamil, reference compound]	–	–	13 ± 1 µM	–	> 200 µM	–
